Read-outs that look alike come from different tables or passages of the source.
Columns and labels:
C4-2 cells = test: Cell-based killing assay of payloads (CellTiter-Glo), C4-2 cells; design: species or system human; conditions: 5-day incubation; for IC50: Homo sapiens, C4-2, 120 h, average ± SD where replicates; for C4-2 % Kill: at maximum concentration tested (100 − % viable cells)
Outline: (§1)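 Viability readout is CellTiter-Glo luminescence after a 5-day exposure to 10-point, threefold-diluted payloads spanning 100 nM–[…], following overnight attachment of 4000 cells/well. Four-parameter logistic fit gives IC50 in M; % kill taken at highest concentration tested.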

T47D cells = test: Cell-based killing assay of payloads (CellTiter-Glo), T47D cells; design: species or system human; conditions: 5-day incubation; for IC50: Homo sapiens, T47D, 120 h; for T47D % Kill: at maximum concentration tested
Outline: as §1

HEK293 cells = test: Cell-based killing assay of payloads (CellTiter-Glo), HEK293 cells; design: species or system human; conditions: 5-day incubation; for IC50: Homo sapiens, HEK293, 120 h; for HEK293 % Kill: at maximum concentration tested
Outline: as §1

HCT15 cells = test: cells; format: cell-based, human; conditions: HCT15 cells; for HCT-15 + verapamil % Kill / HCT-15 % Kill: maximum % cell killing
Outline: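 Five-day exposure of 1000 HCT15 cells/well to threefold payload dilutions, run both plus and minus verapamil (5 ug/mL) in RPMI with 10% FBS. ATP luminescence (CellTiter-Glo) gives viability; four-parameter logistic fit of 10 points yields IC50, and 100 − % viable at highest dose gives % kill.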

HL60/MX2 cells = test: Cytotoxicity in panel of MDR cell lines, HL60/MX2 (72 h and 144 h); format: cell-based, human; conditions: for IC50: Homo sapiens
Outline: (§2)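 MDR lines (HCT-15; doxorubicin-resistant H69AR; mitoxantrone-resistant MES-SA/MX2 and HL60/MX2) seeded at 1000 cells/well in normal growth media, treated with 1:3 serially diluted payloads for 72 h and 144 h. Viability by CellTiter-Glo ATP luminescence; IC50 from four-parameter logistic fit of 10-point curves.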

MES-SA/MX2 cells = test: Cytotoxicity in panel of MDR cell lines, MES-SA/MX2 (72 h and 144 h); format: cell-based, human; conditions: for IC50: Homo sapiens
Outline: as §2

HCT-15 cells = test: Cytotoxicity in panel of MDR cell lines, HCT-15 (72 h and 144 h); format: cell-based, human; conditions: for IC50: Homo sapiens
Outline: as §2

H69AR cells = test: Cytotoxicity in panel of MDR cell lines, H69AR (72 h and 144 h); format: cell-based, human; conditions: for IC50: Homo sapiens
Outline: as §2

[1] = with 5 ug/mL Verapamil, read-out: HCT-15 + verapamil IC50
[2] = Homo sapiens, HCT-15, without Verapamil, read-out: HCT-15 IC50
[3] = 72 h incubation, read-out: HL60/MX2 IC50 72 h
[4] = 144 h incubation, read-out: HL60/MX2 IC50 144 h
[5] = 72 h incubation, read-out: MES-SA/MX2 IC50 72 h
[6] = 144 h incubation, read-out: MES-SA/MX2 IC50 144 h
[7] = 72 h incubation, read-out: HCT-15 IC50 72 h
[8] = 144 h incubation, read-out: HCT-15 IC50 144 h
[9] = 72 h incubation, read-out: H69AR IC50 72 h
[10] = 144 h incubation, read-out: H69AR IC50 144 h

Row | SMILES | IC50 (C4-2 cells) | C4-2 % Kill (C4-2 cells) | IC50 (T47D cells) | T47D % Kill (T47D cells) | IC50 (HEK293 cells) | HEK293 % Kill (HEK293 cells) | HCT-15 + verapamil % Kill (HCT15 cells; with 5 ug/mL Verapamil) | IC50 (HCT15 cells; [1]) | HCT-15 % Kill (HCT15 cells; without Verapamil) | IC50 (HCT15 cells; [2]) | HL60/MX2 % Kill 72 h (HL60/MX2 cells; 72 h incubation) | HL60/MX2 % Kill 144 h (HL60/MX2 cells; 144 h incubation) | IC50 (HL60/MX2 cells; [3]) | IC50 (HL60/MX2 cells; [4]) | MES-SA/MX2 % Kill 72 h (MES-SA/MX2 cells; 72 h incubation) | MES-SA/MX2 % Kill 144 h (MES-SA/MX2 cells; 144 h incubation) | IC50 (MES-SA/MX2 cells; [5]) | IC50 (MES-SA/MX2 cells; [6]) | HCT-15 % Kill 72 h (HCT-15 cells; 72 h incubation) | HCT-15 % Kill 144 h (HCT-15 cells; 144 h incubation) | further results
1 | C#CCCCON(C(=O)[C@@H](NC(=O)[C@H]1CCCCN1C)[C@@H](C)CC)[C@H](C[C@@H](OC(C)=O)c1nc(C(=O)N[C@@H](Cc2ccccc2)CC(C)(C)C(=O)O)cs1)C(C)C [Vc, (4S)-4-({2-[(1R,3R)-1-(Acetyloxy)-4-methyl-3-[(2S,3S)-3-methyl-2-{[(2R)-1-methylpiperidin-2-yl]formamido}-N-(pent-4-yn-1-yloxy)pentanamido]pentyl]-1,3-thiazol-4-yl}formamido)-2,2-dimethyl-5-phenylpentanoic acid] | 0.036 nM | 91.7% | 0.0677 nM | 64.9% | 0.113 nM | 86.9% | 96.7% | 0.146 nM | 97.6% | 0.475 nM | 98.4% | 99.9% | < 0.015 nM | < 0.015 nM | 99.2% | 100% | 0.0895 nM | 0.299 nM | 97.6% | 99.7% | IC50 (HCT-15 cells; [7]): 0.033 nM; IC50 (HCT-15 cells; [8]): 0.0675 nM; H69AR % Kill 72 h (H69AR cells; 72 h incubation): 96.6%; H69AR % Kill 144 h (H69AR cells; 144 h incubation): 99.4%; IC50 (H69AR cells; [9]): 0.154 nM; IC50 (H69AR cells; [10]): 0.287 nM
2 | C#CCCCON(C(=O)[C@@H](NC(=O)[C@H]1CCCCN1C)[C@@H](C)CC)[C@H](C[C@@H](OC(C)=O)c1nc(C(=O)N[C@@H](Cc2ccc(O)cc2)C[C@H](C)C(=O)O)cs1)C(C)C [Vg, (2S,4R)-4-({2-[(1R,3R)-1-(Acetyloxy)-4-methyl-3-[(2S,3S)-3-methyl-2-{[(2R)-1-methylpiperidin-2-yl]formamido}-N-(pent-4-yn-1-yloxy)pentanamido]pentyl]-1,3-thiazol-4-yl}formamido)-5-(4-hydroxyphenyl)-2-methylpentanoic acid] | 0.369 nM | 93.2% | 0.535 nM | 65.2% | 0.7 nM | 86.4% | 98% | 0.237 nM | 94.9% | 0.53 nM | 98% | 99.9% | 0.131 nM | 0.061 nM | 98% | 99.8% | 3.54 nM | 5.3 nM | 97.6% | 99.5% | IC50 (HCT-15 cells; [7]): 0.68 nM; IC50 (HCT-15 cells; [8]): 0.916 nM; H69AR % Kill 72 h (H69AR cells; 72 h incubation): 94.2%; H69AR % Kill 144 h (H69AR cells; 144 h incubation): 98.4%; IC50 (H69AR cells; [9]): 2.13 nM; IC50 (H69AR cells; [10]): 2.72 nM
3 | C#CCCCCN(C(=O)[C@@H](NC(=O)[C@H]1CCCCN1C)[C@@H](C)CC)[C@H](C[C@@H](OC(C)=O)c1nc(C(=O)N[C@@H](Cc2ccc(F)cc2)CC(C)(C)C(=O)O)cs1)C(C)C [IVc, (4S)-4-({2-[(1R,3R)-1-(Acetyloxy)-3-[(2S,3S)—N-(hex-5-yn-1-yl)-3-methyl-2-{[(2R)-1-methylpiperidin-2-yl]formamido}pentanamido]-4-methylpentyl]-1,3-thiazol-4-yl}formamido)-5-(4-fluorophenyl)-2,2-dimethylpentanoic acid] | 0.0924 nM | 92.2% | 0.205 nM | 81.4% | 0.307 nM | 84.8% | 98% | 0.113 nM | 99.2% | 0.302 nM | 97.7% | 99.9% | < 0.015 nM | < 0.015 nM | 98.2% | 99.9% | 0.374 nM | 0.604 nM | 97.3% | 99.8% | IC50 (HCT-15 cells; [7]): 0.125 nM; IC50 (HCT-15 cells; [8]): 0.165 nM; H69AR % Kill 72 h (H69AR cells; 72 h incubation): 96.6%; H69AR % Kill 144 h (H69AR cells; 144 h incubation): 99.3%; IC50 (H69AR cells; [9]): 0.36 nM; IC50 (H69AR cells; [10]): 0.725 nM
4 | C#CCCCCN(C(=O)[C@@H](NC(=O)[C@H]1CCCCN1C)[C@@H](C)CC)[C@H](C[C@@H](OC(C)=O)c1nc(C(=O)N[C@@H](Cc2ccc(F)cc2)C[C@H](C)C(=O)O)cs1)C(C)C [IVe, (2S,4R)-4-({2-[(1R,3R)-1-(Acetyloxy)-3-[(2S,3S)—N-(hex-5-yn-1-yl)-3-methyl-2-{[(2R)-1-methylpiperidin-2-yl]formamido}pentanamido]-4-methylpentyl]-1,3-thiazol-4-yl}formamido)-5-(4-fluorophenyl)-2-methylpentanoic acid] | 0.0742 nM | 91.8% | 0.155 nM | 67.2% | 0.281 nM | 86.7% | 97.6% | 0.1 nM | 95.8% | 0.295 nM | 97.3% | 99.9% | < 0.015 nM | < 0.015 nM | 99.6% | 99.9% | 0.786 nM | 2.81 nM | 98.1% | 99.6% | IC50 (HCT-15 cells; [7]): 0.133 nM; IC50 (HCT-15 cells; [8]): 0.23 nM; H69AR % Kill 72 h (H69AR cells; 72 h incubation): 96.5%; H69AR % Kill 144 h (H69AR cells; 144 h incubation): 99%; IC50 (H69AR cells; [9]): 0.585 nM; IC50 (H69AR cells; [10]): 1.26 nM

— US12144864B2, “Tubulysins and protein-tubulysin conjugates” (Regeneron Pharmaceuticals, Inc., priority 2018, dated 2024)
